Experimental data reported in patent publication US20040029129A1, “Identification of essential genes in microorganisms” (priority 2001, published 2004).
≈ marks a conversion by molar mass, not a printed value.

Experiments:
[1] = system: Staphylococcus aureus cells containing antisense to the Beta subunit of DNA gyrase (S1M10000001F08); experiment: Antibiotic potency in cells with xylose-induced antisense to the Beta subunit of DNA gyrase; assay type: cell-based; settings: 12 mM xylose versus 0 mM xylose; FIG. 10
[2] = system: E. coli transformed with IPTG-inducible antisense clones; experiment: Cell-based assay using antisense complementary to genes encoding ribosomal proteins (antibiotic sensitivity with and without IPTG); settings: with IPTG versus without IPTG; for Sensitivity to antibiotic of cells transcribing antisense to protein synthesis genes: AS-rplL, AS-rplW, AS-rplL/J and other protein synthesis gene clones
[3] = system: cells which overexpress the defB gene product; experiment: Growth of cells overexpressing the defB gene in the presence of antibiotics; assay type: cell-based; settings: FIG. 16
[4] = system: cells which overexpress the folA gene product; experiment: Growth of cells overexpressing the folA gene in the presence of antibiotics; assay type: cell-based; settings: for resistance conferred by overexpression of the folA gene: FIG. 15
[5] = system: overexpression of the fabI gene; experiment: Growth of cells overexpressing the fabI gene in the presence of antibiotics; assay type: cell-based; settings: FIG. 14
[6] = system: overexpression of the fabF gene (β keto-acyl carrier protein synthase); experiment: Growth of cells overexpressing the fabF gene in the presence of antibiotics; assay type: cell-based; settings: FIG. 17
[7] = system: Staphylococcus aureus cells overexpressing a gene product required for proliferation; experiment: Growth of strains overexpressing a proliferation-required gene (XylT5 promoter) at elevated antibiotic concentrations; assay type: cell-based; settings: for resistance conferred by overexpression of the defB gene: defB (peptide deformylase) overexpressed, FIG. 16; for resistance conferred by overexpression of the fabF gene: fabF (β keto-acyl carrier protein synthase II) overexpressed, FIG. 17; for resistance conferred by overexpression of the fabI gene: fabI (enoyl-acyl carrier protein reductase) overexpressed, FIG. 14; for resistance conferred by overexpression of the folA gene: folA (dihydrofolate reductase) overexpressed, FIG. 15
[8] = system: Strains of Staphylococcus aureus containing plasmids encoding antisense nucleic acids; experiment: Selective disappearance of amplification products of strains underexpressing the antibiotic's target (mixed antisense strains); assay type: cell-based; settings: rich medium
[9] = system: mixture of nine S. aureus strains overexpressing fabF, defB, folA, fabI, ileS, fusA, gyrB, murA, rpoB; experiment: Selection of a strain overexpressing the target gene product from a mixture of nine overexpressing strains; assay type: cell-based; settings: folA gene; at least 60 colonies

With CO/N=C(\C(=O)N[C@@H]1C(=O)N2C(C(=O)O)=C(COC(C)=O)CS[C@H]12)c1csc(N)n1 [Cefotaxime] the “Potency in induced cells as compared to uninduced cells” value (shortened to “Potency … compared to uninduced cells”) [1] was “not significantly different”.

With CO[C@@]1(NC(=O)Cc2cccs2)C(=O)N2C(C(=O)O)=C(COC(N)=O)CS[C@@H]21 [Cefoxitin] the “Potency … compared to uninduced cells” value [1] was “not significantly different”.

In the case of CC[C@H]1OC(=O)[C@H](C)[C@@H](O[C@H]2C[C@@](C)(OC)[C@@H](O)[C@H](C)O2)[C@H](C)[C@@H](O[C@@H]2O[C@H](C)C[C@H](N(C)C)[C@H]2O)[C@](C)(O)C[C@@H](C)C(=O)[C@H](C)[C@@H](O)[C@]1(C)O [Erythromycin], the “Sensitivity to antibiotic of cells transcribing antisense to genes not involved in protein synthesis” value ([2]; AS-atpB/E, AS-visC, AS-elaD, AS-yohH) is reported as “do not” and the “Sensitivity to antibiotic of cells transcribing antisense to protein synthesis genes” value [2] is reported as “increased sensitivity”.

With CC(=O)O[C@H]1C[C@@]2(C)[C@@H](C[C@@H](O)[C@H]3[C@@]4(C)CC[C@@H](O)[C@@H](C)[C@@H]4CC[C@@]32C)/C1=C(\CCC=C(C)C)C(=O)O [Fusidic acid] the “Potency … compared to uninduced cells” value [1] was “not significantly different”.

With CCC[C@@H]1C[C@@H](C(=O)N[C@@H]([C@H]2O[C@H](SC)[C@H](O)[C@@H](O)[C@H]2O)[C@@H](C)O)N(C)C1 [Lincomycin] the “Potency … compared to uninduced cells” value [1] was “not significantly different”.

In the case of CCn1cc(C(=O)O)c(=O)c2ccc(C)nc21 [Nalidixic acid], the “Sensitivity to antibiotic of cells transcribing antisense to protein synthesis genes” value [2] is reported as “does not show increased sensitivity”.

In the case of NC[C@H]1O[C@H](O[C@H]2[C@H](O)[C@@H](O[C@H]3O[C@H](CO)[C@@H](O)[C@H](N)[C@H]3O)[C@H](N)C[C@@H]2N)[C@H](N)C[C@@H]1O [Tobramycin], the “Potency … compared to uninduced cells” value [1] is reported as “not significantly different”.

In the case of CN[C@H](CC(C)C)C(=O)N[C@H]1C(=O)N[C@@H](CC(N)=O)C(=O)N[C@H]2C(=O)N[C@H]3C(=O)N[C@H](C(=O)N[C@H](C(=O)O)c4cc(O)cc(O)c4-c4cc3ccc4O)[C@H](O)c3ccc(c(Cl)c3)Oc3cc2cc(c3O[C@@H]2O[C@H](CO)[C@@H](O)[C@H](O)[C@H]2O[C@H]2C[C@](C)(N)[C@H](O)[C@H](C)O2)Oc2ccc(cc2Cl)[C@H]1O [Vancomycin], the “Potency … compared to uninduced cells” value [1] is reported as “not significantly different”.

For C/C=C/C/C=C/CCC(=O)[C@H]1O[C@H]1C(N)=O [cerulenin], the “resistance conferred by overexpression of the defB gene” value [3] was “does not confer resistance”, the “resistance conferred by overexpression of the folA gene” value [4] was “does not confer resistance” and the “resistance conferred by overexpression of the fabI gene” value [5] was “does not confer resistance”. The “resistance conferred by overexpression of the fabF gene” value [6] was “conferred resistance”, the “resistance conferred by overexpression of the defB gene” value [7] was “did not confer resistance” and the “resistance conferred by overexpression of the fabF gene” value [7] was “conferred resistance”. For the same compound, the “resistance conferred by overexpression of the fabI gene” value [7] was “did not confer resistance”, the “resistance conferred by overexpression of the folA gene” value [7] was “did not confer resistance” and the IC50 ([8]; read-out: IC50 (middle concentration used)) was 9 µg/mL (≈ 40.3 µM).

With C/C(=C\C(=O)OCCCCCCCCC(=O)O)C[C@@H]1OC[C@H](C[C@@H]2O[C@H]2[C@@H](C)[C@H](C)O)[C@@H](O)[C@H]1O [mupriocin] the “IC50 (middle concentration used)” value [8] was 8.6 µg/mL (≈ 17.2 µM).

CO[C@@H]1[C@@H](OC(N)=O)[C@@H](O)[C@H](Oc2ccc3c(O)c(NC(=O)c4ccc(O)c(CC=C(C)C)c4)c(=O)oc3c2C)OC1(C)C [novobiocin] was tested, and the “Potency … compared to uninduced cells” value [1] was “significantly different”.

Oc1cc(Cl)ccc1Oc1ccc(Cl)cc1Cl [triclosan] was tested, and the “resistance conferred by overexpression of the defB gene” value [3] was “does not confer resistance”, the “resistance conferred by overexpression of the folA gene” value [4] was “does not confer resistance” and the “resistance conferred by overexpression of the fabI gene” value [5] was “confers resistance”. For the same compound, the “resistance conferred by overexpression of the fabF gene” value [6] was “does not confer resistance”, the “resistance conferred by overexpression of the defB gene” value [7] was “did not confer resistance” and the “resistance conferred by overexpression of the fabF gene” value [7] was “did not confer resistance”. The “resistance conferred by overexpression of the fabI gene” value [7] was “conferred resistance” and the “resistance conferred by overexpression of the folA gene” value [7] was “did not confer resistance”.

For COc1cc(Cc2cnc(N)nc2N)cc(OC)c1OC [trimethoprim], the “resistance conferred by overexpression of the defB gene” value [3] was “does not confer resistance”, the “resistance conferred by overexpression of the folA gene” value [4] was “confers resistance” and the “growth of cells overexpressing the folA gene product in presence of antibiotic” value ([4]; at appropriate concentrations of inducer, FIG. 13) was “able to grow at elevated concentrations”. For the same compound, the “resistance conferred by overexpression of the fabI gene” value [5] was “does not confer resistance”, the “resistance conferred by overexpression of the fabF gene” value [6] was “does not confer resistance” and the “Potency … compared to uninduced cells” value [1] was “not significantly different”. The “resistance conferred by overexpression of the defB gene” value [7] was “did not confer resistance”, the “resistance conferred by overexpression of the fabF gene” value [7] was “did not confer resistance” and the “resistance conferred by overexpression of the fabI gene” value [7] was “did not confer resistance”. For the same compound, the “resistance conferred by overexpression of the folA gene” value [7] was “conferred resistance” and the “Plasmids from colonies which grew in the presence of the antibiotic that contained the target gene” value [9] was 81%.
